# From patent US7166581B1, “Treatment of chemotherapeutic agent and antiviral agent toxicity with acylated pyrimidine nucleosides” (Wellstat Therapeutics Corporation, priority 1987, dated 2007)
# Legend:
# [1] = tested on: hematopoietic system (5-FU toxicity); assay: Oral TAU vs uridine rescue from 5-FU hematologic toxicity (Example 1); type: in vivo, female Balb/C mice
# Protocol: Forty-five female Balb/C mice (20 grams each) were given 5-fluorouracil (150 mg/kg, i.p.) at 12:00 noon on the initial day of the experiment. These animals were then divided into 5 groups: control (water, p.o.), oral uridine at 400 mg/kg/dose, oral uridine at 800 mg/kg/dose, parenteral (i.p.) uridine at 400 mg/kg/dose, and oral TAU at 500 mg/kg/dose.
# Two hours after administration of 5-FU, the rescue treatments with uridine or triacetyluridine were begun. Groups received their designated treatment at 2:00 p.m., 4:00 p.m., and 6:00 p.m. on the day of 5-FU administration, and at 9 a.m., 11:00 a.m., 1:00 p.m., 3:00 p.m. and 5:00 p.m. on the following day. Each dose of uridine or TAU was administered in 0.2 ml of water by gavage or in 0.2 ml of saline by i.p. injection, as appropriate.
# Mice were sacrificed by cervical dislocation; femurs were removed, and their cell contents were expelled for counting; spleens were also removed and weighed. […]
# [2] = tested on: CD8F1 spontaneous mammary adenocarcinoma; assay: TAU/uridine rescue with 5-FU alone in tumor-bearing mice (Example 5); type: in vivo
# Protocol: Sixty CD8F1 (BALB/C×[…]) female mice with first generation transplants of CD8F1 spontaneous mammary adenocarcinoma were treated with a weekly chemotherapy regimen which included a single dose of 5-FU (150 mg/kg) followed by various rescue strategies. The average tumor size was 157 mg at the start of the chemotherapy. The weekly chemotherapy course was completed three times.
# In order to evaluate the various rescue therapies, the animals were divided into six groups of ten animals each as follows: […]
# [3] = tested on: CD8F1 spontaneous breast tumors; assay: TAU/uridine rescue with PALA-MTX-5-FU-LV combination chemotherapy in tumor-bearing mice (Example 6); type: in vivo, male CD8F1 mice; conditions: PALA-MTX-5-FU-LV weekly x3
# Protocol: Forty male CD8F1 mice with transplanted CD8F1 spontaneous breast tumors (initial tumor weight of 155 mg) were treated weekly with the following regimen:
# In order to evaluate and compare the efficacy of TAU and uridine, the mice were divided into four groups of ten animals each.
# Saline, uridine, or TAU was administered every eight hours for a total of 5 treatments starting two hours after each weekly dose of 5-FU. This weekly regimen was repeated for three successive weeks. One week after the third course of chemotherapy regimen, mortality in each group was assessed and, where a sufficient number of animals survived, body weight and tumor weight were also measured.
# [4] = tested on: hematopoietic system (5-FU toxicity); assay: Acyl derivatives of uridine i.p. vs bone marrow toxicity of 5-FU (Example 3); type: in vivo, female Balb/C mice; conditions: for HCT % / Lym / Neut / RBC / WBC: eleven days after 5-FU
# Protocol: Ninety-eight female Balb/C mice weighing approximately 20 grams each were given a one-time 150 mg/kg injection (i.p.) of 5-FU at 1 p.m. on the initial day of the study. […] All of these doses are equimolar, and were administered in a volume of 0.4 ml by i.p. injection. The groups were treated at 3:30, 6:00, and 8:30 p.m. on the initial day with their respective agents. […] On days seven and eleven following 5-FU administration, blood (0.2–0.3 ml) was collected from seven mice in each group by retro-orbital bleeding into EDTA for subsequent differential blood cell counting. Mice were sacrificed by cervical dislocation; their right femurs removed and the contents expelled for cell counting; and their spleens removed and weighed.
# [5] = tested on: hematopoietic system (AZT toxicity); assay: Oral TAU vs hematopoietic damage by i.p. AZT (Example 9); type: in vivo, female Balb/C mice
# Protocol: AZT (100 mg/kg i.p.) was given three times daily at 9 a.m., 4 p.m., and at 10 p.m. to fifty-six female Balb/C mice weighing approximately 19 grams each. Three times each day, at 9 a.m., 4 p.m., and 10 p.m., animals were treated with either water (control) or TAU at doses of 230, 460, or 920 mg/kg/treatment by oral intubation. Treatment volume was 0.2 ml for the control and TAU 460 groups, 0.1 ml for the TAU 230 group, and 0.4 ml for the TAU 920 group. One additional group of fourteen mice was not given AZT or any treatments (basal).
# All of the animals were weighed on the day the experiment began, on day six and on day 13. After weighing the mice on days six and thirteen blood (0.2–0.3 ml) was collected from seven mice in each group by retro-orbital bleeding into EDTA for subsequent differential blood cell counting, including reticulocytes. Mice were then sacrificed by cervical dislocation; their right femurs removed and the contents expelled for cell counting; and their spleens removed and weighed.
# [6] = 7 days after 5-FU 150 mg/kg i.p., oral, Urd 400 or equimolar TAU 500 mg/kg/dose
# [7] = 7 days after 5-FU, oral, Urd 400 or equimolar TAU 500 mg/kg/dose
# [8] = 11 days after 5-FU, oral, Urd 400 or equimolar TAU 500 mg/kg/dose
# [9] = 5-FU 150 mg/kg i.p. weekly x3 + oral uridine 5,000 or equimolar TAU 7,582 mg/kg
# [10] = oral uridine 4,000 or equimolar TAU 6,066 mg/kg every 8 h x5
# [11] = day seven after 5-FU, TAU 455 mg/kg/treatment i.p.
# [12] = day 13, AZT i.p. + oral TAU 460 mg/kg/treatment
# [13] = 7 days after 5-FU, Urd 400 mg/kg/dose i.p.
# [14] = 7 days after 5-FU, Urd 800 mg/kg/dose oral
# [15] = 11 days after 5-FU, Urd 400 mg/kg/dose i.p.
# [16] = 11 days after 5-FU, Urd 800 mg/kg/dose oral
# [17] = 5-FU 150 mg/kg i.p. weekly x3 + uridine 3,500 mg/kg i.p.
smiles,measurement,setting,value
"CC(=O)OC[C@H]1O[C@@H](n2ccc(=O)[nH]c2=O)[C@H](OC(C)=O)[C@@H]1OC(C)=O [TAU, triacetyluridine]",WBC,[1]; [6],5.9 ± .4 K/μl
same,Lymphocytes,[1]; [7],4.72 ± .36 K/μl
same,Marrow cell counts,[1]; [7],3.0 ± .5 × 10^6 × 10^6/femur
same,Neutrophils,[1]; [7],1.20 K/μl
same,Platelets,[1]; [7],723 K/μl
same,RBC,[1]; [7],8.27 ± .16 M/μl
same,Spleen weight,[1]; [7],78 ± 3.5 mg
same,Lymphocytes,[1]; [8],3.29 ± .36 K/μl
same,Neutrophils,[1]; [8],1.89 K/μl
same,Platelets,[1]; [8],1446 K/μl
same,RBC,[1]; [8],8.05 M/μl
same,Spleen weight,[1]; [8],143 ± 11 mg
same,WBC,[1]; [8],5.4 ± .5 K/μl
same,Average Final Tumor Weight,[2]; [9],"1,013 mg"
same,Mortality,[2]; [9],1/10
same,Average Final Tumor Weight,"[3]; oral TAU 6,066 mg/kg",162 mg
same,Mortality,[3]; [10],1/10
same,bone marrow cellularity,[4]; [11],4.50±77 ×10^3 per microliter
same,increase of bone marrow cellularity over control values,[4]; [11],40%
same,HCT %,[4]; equimolar i.p. doses,35.01 ± 1.2%
same,Lym,[4]; equimolar i.p. doses,5.6 ± .4 K/μl
same,Neut,[4]; equimolar i.p. doses,.55 ± K/μl
same,RBC,[4]; equimolar i.p. doses,7.35 ± .2 M/μl
same,WBC,[4]; equimolar i.p. doses,6.23 ± .55 K/μl
same,HCT,[5]; [12],40.83 ± 0.37%
same,HGB,[5]; [12],14.54 ± G/dL
same,Lymph.,[5]; [12],6.06 ± 0.38 K/μl
same,Neutro.,[5]; [12],0.62 ± 0.03 K/μl
same,Platelets,[5]; [12],863 ± 26 K/μl
same,RBC,[5]; [12],8.58 ± M/μl
same,Retic.,[5]; [12],0.162 ± 0.014 M/μl
same,WBC,[5]; [12],7.0 ± K/μl
same,bone marrow cellularity,"[5]; day six, AZT 100 mg/kg i.p. three times daily + oral TAU 230 mg/kg",8.89±0.46
same,RBC levels,"[5]; day six, AZT i.p. + oral TAU 460 mg/kg/treatment",9.15±0.07 ×10^6 per microliter
same,WBC counts,"[5]; day six, AZT i.p. + oral TAU 920 mg/kg",8.46±0.63 ×10^3 per microliter
"O=c1ccn([C@@H]2O[C@H](CO)[C@@H](O)[C@H]2O)c(=O)[nH]1 [Urd, uridine]",WBC,[1]; [6],4.4 ± .5 K/μl
same,Lymphocytes,[1]; [13],3.80 ± .30 K/μl
same,Marrow cell counts,[1]; [13],5.0 ± .7 × 10^6 × 10^6/femur
same,Neutrophils,[1]; [13],0.83 ± .24 K/μl
same,Platelets,[1]; [13],773 K/μl
same,RBC,[1]; [13],8.06 ± .05 M/μl
same,Spleen weight,[1]; [13],78 ± 5.5 mg
same,WBC,[1]; [13],4.6 ± .4 K/μl
same,Lymphocytes,[1]; [14],3.76 ± .27 K/μl
same,Marrow cell counts,[1]; [14],2.9 ± .9 × 10^6 × 10^6/femur
same,Neutrophils,[1]; [14],0.88 ± .22 K/μl
same,Platelets,[1]; [14],646 K/μl
same,RBC,[1]; [14],8.24 ± .26 M/μl
same,Spleen weight,[1]; [14],74 ± 6.4 mg
same,WBC,[1]; [14],4.6 ± .4 K/μl
same,Lymphocytes,[1]; [7],3.01 ± .77 K/μl
same,Marrow cell counts,[1]; [7],1.6 ± .2 × 10^6 × 10^6/femur
same,Neutrophils,[1]; [7],0.48 ± .23 K/μl
same,Platelets,[1]; [7],434 K/μl
same,RBC,[1]; [7],7.66 ± .12 M/μl
same,Spleen weight,[1]; [7],74 ± 2.4 mg
same,Lymphocytes,[1]; [15],3.84 ± .38 K/μl
same,Neutrophils,[1]; [15],1.20 ± .21 K/μl
same,Platelets,[1]; [15],1706 K/μl
same,RBC,[1]; [15],7.78 ± .22 M/μl
same,Spleen weight,[1]; [15],104 ± 6 mg
same,WBC,[1]; [15],5.1 ± .5 K/μl
same,Lymphocytes,[1]; [16],4.07 ± .38 K/μl
same,Neutrophils,[1]; [16],0.82 ± .19 K/μl
same,Platelets,[1]; [16],2127 K/μl
same,RBC,[1]; [16],7.33 ± .16 M/μl
same,Spleen weight,[1]; [16],99 ± 6 mg
same,WBC,[1]; [16],4.9 ± .4 K/μl
same,Lymphocytes,[1]; [8],3.65 ± .27 K/μl
same,Neutrophils,[1]; [8],0.84 ± .19 K/μl
same,Platelets,[1]; [8],1940 K/μl
same,RBC,[1]; [8],7.44 ± .14 M/μl
same,Spleen weight,[1]; [8],103 ± 15 mg
same,WBC,[1]; [8],4.6 ± .5 K/μl
same,Average Final Tumor Weight,[2]; [9],896 mg
same,Mortality,[2]; [9],0/10
same,Average Final Tumor Weight,[2]; [17],"1,604 mg"
same,Mortality,[2]; [17],1/10
same,Mortality,[3]; [10],5/10
same,Average Final Tumor Weight,"[3]; uridine 3,500 mg/kg i.p.",110 mg
same,Mortality,"[3]; uridine 3,500 mg/kg i.p. every 8 h x5",0/10
same,Spleen weights,"[4]; day eleven after 5-FU, equimolar i.p. doses, in mg",121.6±9.7
same,Spleen weight,"[4]; day seven after 5-FU 150 mg/kg i.p., i.p. doses equimolar to uridine 300 mg/kg/treatment",80.4 ± 7.8 mg
same,Platelet counts,"[4]; day seven after 5-FU, equimolar i.p. doses",785.3±57.5 ×10^3 per microliter
same,HCT %,[4]; equimolar i.p. doses,34.67 ± 0.9%
same,Lym,[4]; equimolar i.p. doses,4.6 ± .4 K/μl
same,Neut,[4]; equimolar i.p. doses,.60 ± K/μl
same,RBC,[4]; equimolar i.p. doses,7.32 ± .2 M/μl
same,WBC,[4]; equimolar i.p. doses,5.20 ± .47 K/μl
